“And” between values parts separate entries of the source, which are not always exact repeats. Equal values may be shown once.
Columns and labels:
AR 1.0 cells [1] = experiment: Proliferation assay with and without fixed concentration of doxorubicin (sulphorhodamine B); format: cell-based, mouse; conditions: for IC50: four days
Source text: Compounds of formula A were examined for their ability to potentiate the toxicity of doxorubicin in AR 1.0 cells.

AR 1.0 cells [2] = experiment: Drug accumulation assay (tritiated daunorubicin) in MDR resistant AR 1.0 cells; format: cell-based; conditions: Mus musculus, DNR 2 μM; for IC50: 37° C., 1 hr; for Emax: 1 h, 100% = accumulation with 100 μM Verapamil, read-out: MAX accumulation (% 100 μm VRP)
Experimental: The EMT6 mouse mammary carcinoma cell line and the MDR resistant subline AR 1.0 were cultured in RPMI 1640 medium containing 10% foetal calf serum and 2 mM glutamine at 37° C. in 5% CO2 . Cells were passaged between 1 in 200 and 1 in 2000 in the case of the parental cell line and between 1 in 20 and 1 in 200 in the case of the MDR resistant subline, after trypsinisation (0.25% trypsin, 0.2 gl^-1, EDTA).
AR 1.0 cells were seeded into 96 well opaque culture plates (Canberra Packard). The assay medium contained a mixture of tritiated Daunorubicin (DNR), a cytotoxic agent, and unlabelled DNR (0.25μ Ci/ml; 2 μM). Compounds of formula A were serially diluted in assay medium over a range of concentrations from 100 nM to 100 μM. The cells were incubated at 37° C. for 1 hr before washing and counting of cell associated radioactivity. Each assay included a titration of the known resistance modifying agent Verapamil as positive control. Results were expressed as % maximum accumulation where 100% accumulation is that observed in the presence of 100 μM Verapamil.

AR 1.0 cells [3] = experiment: Potentiation of doxorubicin toxicity (potentiation index) in AR 1.0 cells; format: cell-based, mouse; conditions: four days
MDR cells = conditions: in vitro and in vivo; Cancer Res., 41, 1967-1972 (1981); cited from earlier work
[4] = Mus musculus, 96 h, compound alone, read-out: COMPOUND TOXICITY (IC50)
[5] = cytotoxic agent 1.00 μg/ml, 5760 min, read-out: TOXICITY WITH CYTOTOXIC AGENT (IC 50)
[6] = cytotoxic agent 0.50 μg/ml, 5760 min, read-out: TOXICITY WITH CYTOTOXIC AGENT (IC 50)

Row | SMILES | IC50 (AR 1.0 cells [2]) | IC50 (AR 1.0 cells [1]; [4]) | IC50 (AR 1.0 cells [1]; [6]) | further results
1 | COC(=O)Cn1c(=O)/c(=C/c2ccccc2)[nH]c(=O)/c1=C/c1ccc(OC)cc1 [Compound 1486, Methyl (3Z,6Z)-3-benzylidene-6-(4-methoxybenzylidene)-2,5-dioxo-1-piperazinylacetate] | 50 µM | 10 µM |  | 
2 | COC(=O)Cn1c(=O)/c(=C/c2ccc(OC)cc2)[nH]c(=O)/c1=C/c1ccccc1 [Compound 1490, Methyl (3Z,6Z)-6-benzylidene-3-(4-methoxybenzylidene)-2,5-dioxo-1-piperazinylacetate] | 30 µM | 30 µM |  | IC50 (AR 1.0 cells [1]; [5]): 2 µM; Emax (AR 1.0 cells [2]): 63.6%
3 | COc1ccc(/C=c2\[nH]c(=O)/c(=C/c3ccccc3)n(CC3CC3)c2=O)cc1 [Compound 1500] | 15 µM | 20 µM |  | Emax (AR 1.0 cells [2]): 91.3%; Potentiation Index (AR 1.0 cells [3]; Conc Comp 3 μM): 10
4 | COc1ccc(/C=c2/c(=O)[nH]/c(=C\c3ccccc3)c(=O)n2CC(=O)N2CCCC2)cc1 [Compound 1521, N,N-Tetramethylene-(3Z,6Z)-3-benzylidene-6-(4-methoxybenzylidene)-2,5-dioxo-1-piperazinylacetamide] | 30 µM | 70 µM |  | Emax (AR 1.0 cells [2]): 65.2%
5 | CCN(CC)C(=O)Cn1c(=O)/c(=C/c2ccc(OC)cc2)[nH]c(=O)/c1=C/c1ccccc1 [Compound 1527, N,N-Diethyl-(3Z,6Z)-6-benzylidene-3-(4-methoxybenzylidene)-2,5-dioxo-1-piperazinylacetamide] | 40 µM | 40 µM |  | IC50 (AR 1.0 cells [1]; [5]): 1.5 µM; Emax (AR 1.0 cells [2]): 73.9%
6 | Cn1c(=O)/c(=C/c2ccccc2)n(Cc2ccccc2)c(=O)/c1=C/c1ccccc1 [Compound 1779, (3Z,6Z)-1-Benzyl-3,6-dibenzylidene-4-methyl-2,5-piperazinedione] | 15 µM | 15 µM |  | IC50 (AR 1.0 cells [1]; [5]): 0.8 µM; Potentiation Index (AR 1.0 cells [3]; Conc Comp 5 μM): 40
7 | CC(=O)OCCn1c(=O)/c(=C/c2ccccc2)n(C)c(=O)/c1=C/c1ccccc1 [Compound 1817, (3Z,6Z)-1-(2-Acetoxyethyl)-3,6-dibenzylidene-4-methyl-2,5-piperazinedione] | 20 µM | 20 µM | 1.5 µM | 
8 | CC(=O)OCCOc1n/c(=C\c2ccccc2)c(=O)n(C)/c1=C\c1ccccc1 [Compound 1818, (3Z,6Z)-5-(2-Acetoxyethoxy)-3,6-dibenzylidene-1-methyl-3,6-dihydro-2-pyrazinone] | 7 µM | 1.5 µM | 0.8 µM | 
9 | C=CCn1c(=O)/c(=C/c2ccccc2)n(C)c(=O)/c1=C/c1ccccc1 [Compound 1825, (3Z,6Z)-1-Allyl-3,6-dibenzylidene-4-methyl-2,5-piperazinedione] | 10 µM | 20 µM | 1.5 µM | Potentiation Index (AR 1.0 cells [3]; Conc Comp 3 μM): 15
10 | COc1ccc(/C=c2/c(=O)n(CC3CC3)/c(=C\c3ccccc3)c(=O)n2C)cc1 [Compound 1833] | 12 µM | 9 µM | 1 µM | Potentiation Index (AR 1.0 cells [3]; Conc Comp 3 μM): 20
11 | CCCCCOc1n/c(=C\c2ccccc2)c(=O)n(C)/c1=C\c1ccccc1 [Compound 1855] | 10 µM | 6 µM | 0.8 µM | 
12 | COc1ccc(CCN(C)CCCC(C#N)(c2ccc(OC)c(OC)c2)C(C)C)cc1OC (stereo not drawn) [Verapamil] |  |  |  | sensitisation of MDR cells to Vinca alkaloids (MDR cells): sensitise MDR cells to Vinca alkaloids in vitro and in vivo
13 | COc1cccc2c1C(=O)c1c(O)c3c(c(O)c1C2=O)C[C@@](O)(C(=O)CO)C[C@@H]3O[C@H]1C[C@H](N)[C@H](O)[C@H](C)O1 [doxorubicin, reference compound] |  |  |  | toxicity of doxorubicin alone to AR 1.0 cells (AR 1.0 cells [1]; fixed concentration 0.5-1 μM): non-toxic

Further lines, with some results ahead:

Row | IC50 (AR 1.0 cells [2]) | SMILES | IC50 (AR 1.0 cells [1]; [4]) | IC50 (AR 1.0 cells [1]; [6]) | further results
14 | 10 µM | COc1ccc(/C=c2/c(=O)[nH]/c(=C\c3ccccc3)c(=O)n2CC2CC2)cc1 [Compound 1454, (3Z,6Z)-3-Benzylidene-1-cyclopropylmethyl-6-(4-methoxybenzylidene)-2,5-piperazinedione] | 5 µM |  | Potentiation Index (AR 1.0 cells [3]; Conc Comp 5 μM): 10
15 | 9 µM | Cn1c(=O)/c(=C/c2ccccc2)nc(OCC2OCCO2)/c1=C/c1ccccc1 [Compound 1822, (3Z,6Z)-3,6-Dibenzylidene-1-methyl-2-oxo-1,2,3,6-tetrahydro-5-pyrazinyloxyacetaldehyde ethylene acetal] | 5 µM |  | 
16 | 9 µM | Cn1c(=O)/c(=C/c2ccccc2)n(CC2OCCO2)c(=O)/c1=C/c1ccccc1 [Compound 1823, (3Z,6Z)-3,6-Dibenzylidene-4-methyl-2,5-dioxo-1-piperazinylacetaldehydeethylene acetal] | 30 µM | 0.7 µM | Potentiation Index (AR 1.0 cells [3]; Conc Comp 3 μM): 20
17 | 3 µM | Cn1c(=O)/c(=C/c2ccccc2)nc(OCCCN2C(=O)c3ccccc3C2=O)/c1=C/c1ccccc1 [Compound 1824, (3Z,6Z)-3,6-Dibenzylidene-1-methyl-5-(3-phthalimidopropoxy)-3,6-dihydro-2-pyrazinone] | 7 µM |  | Potentiation Index (AR 1.0 cells [3]; Conc Comp 3 μM): 60 and 80
18 | 2 µM | Cn1c(=O)/c(=C/c2ccccc2)n(Cc2cccc([N+](=O)[O-])c2)c(=O)/c1=C/c1ccccc1 [Compound 1936, (3Z,6Z)-3,6-Dibenzylidene-1-methyl-4-(3-nitrobenzylidene)-2,5-piperazinedione] |  |  | 
19 | 4 µM | Cn1c(=O)/c(=C/c2ccccc2)n(Cc2ccc([N+](=O)[O-])cc2)c(=O)/c1=C/c1ccccc1 [Compound 1939, (3Z,6Z)-3,6-Dibenzylidene-1-methyl-4-(4-nitrobenzylidene)-2,5-piperazinedione] |  |  | 
